According to US8633318B2, “Compounds for treatment or prevention of inflammation, an inflammatory disease, or an immune or an autoimmune disorder” (Proximagen Ltd, priority 2008, dated 2014):

Target: T1, human SSAO (Homo sapiens, UniProt Q16853)
T1 construct: made in house
T1 sequence (Q16853 29-763 limits assumed): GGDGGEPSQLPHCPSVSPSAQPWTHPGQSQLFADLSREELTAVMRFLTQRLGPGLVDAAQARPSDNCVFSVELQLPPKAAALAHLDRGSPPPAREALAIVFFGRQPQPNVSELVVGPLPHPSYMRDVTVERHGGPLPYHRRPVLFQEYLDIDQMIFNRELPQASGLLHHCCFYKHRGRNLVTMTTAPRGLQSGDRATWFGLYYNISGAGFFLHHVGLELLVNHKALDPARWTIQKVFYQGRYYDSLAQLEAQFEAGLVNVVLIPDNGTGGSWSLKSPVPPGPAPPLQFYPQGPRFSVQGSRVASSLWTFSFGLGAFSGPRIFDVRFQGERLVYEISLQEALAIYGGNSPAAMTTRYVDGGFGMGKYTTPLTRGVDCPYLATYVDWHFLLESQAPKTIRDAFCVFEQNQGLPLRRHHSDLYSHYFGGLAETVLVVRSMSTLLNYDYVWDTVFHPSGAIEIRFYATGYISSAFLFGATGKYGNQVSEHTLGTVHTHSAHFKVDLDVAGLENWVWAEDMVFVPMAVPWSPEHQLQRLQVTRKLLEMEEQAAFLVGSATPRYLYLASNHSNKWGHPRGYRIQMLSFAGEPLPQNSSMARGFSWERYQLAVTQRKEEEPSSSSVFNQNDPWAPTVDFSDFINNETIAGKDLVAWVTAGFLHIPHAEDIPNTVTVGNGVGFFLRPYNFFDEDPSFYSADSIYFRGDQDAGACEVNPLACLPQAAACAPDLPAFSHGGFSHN
Assay: SSAO enzyme inhibition assay (Amplex Red/HRP coupled, benzylamine substrate)
Format: biochemical
Details: purified recombinantly expressed human SSAO; benzylamine 100 μM; about 60 minutes pre-incubation; room temperature
Method: Biological Assay of the SSAO Enzyme Inhibitors
All assays were performed in room temperature with purified recombinantly expressed human SSAO. Enzyme was prepared essentially as described in Öhman et al. (Protein Expression and Purification 2006, 46, 321-331). The enzyme activity was measured with benzylamine as substrate and utilized the production of hydrogen peroxide for detection. In a horseradish peroxidise (HRP) coupled reaction, hydrogen peroxide oxidation of 10-acetyl-3,7-dihydroxyphenoxazine produced resorufin, which is a highly fluorescent compound (Zhout and Panchuk-Voloshina. Analytical Biochemistry 1997, 253, 169-174; Amplex® Red Hydrogen Peroxide/peroxidise Assay kit, Invitrogen A22188).
Briefly, test compounds were dissolved in dimethyl sulfoxide (DMSO) to a concentration of 10 mM. Dose-response measurements were assayed by either creating 1:10 serial dilutions in DMSO to produce a 7 point curve or by making 1:3 serial dilutions in DMSO to produce 11 point curves. […] Fluorescence intensity was then measured at several time points (15 minutes, 20 minutes and 30 minutes) exciting at 544 nm and reading the emission at 590 nm). […] The inhibition was measured as % decrease of the signal compared to a control without inhibitor (only diluted DMSO). […] Data was fitted to a four parameter logistic model and IC50 values were calculated using the GraphPad Prism 4 or XLfit 4 programs.

| IC50 | Structure (SMILES) |
| --- | --- |
| 89 nM | Cc1ccc(-c2nn(C3CCOCC3)c3ccncc23)cc1 [Example 3, 3-(4-Methylphenyl)-1-(tetrahydro-2H-pyran-4-yl)-1H-pyrazolo[4,3-c]pyridine] |
| 120 nM | Clc1ccc(-c2nn(C3CCNCC3)c3ccncc23)cc1 [Example 5, 3-(4-Chlorophenyl)-1-piperidin-4-yl-1H-pyrazolo[4,3-c]pyridine] |
